pEC50: −log10 of the molar value.

Sequence of PRMT5/MEP50 complex (O14744 whole entry): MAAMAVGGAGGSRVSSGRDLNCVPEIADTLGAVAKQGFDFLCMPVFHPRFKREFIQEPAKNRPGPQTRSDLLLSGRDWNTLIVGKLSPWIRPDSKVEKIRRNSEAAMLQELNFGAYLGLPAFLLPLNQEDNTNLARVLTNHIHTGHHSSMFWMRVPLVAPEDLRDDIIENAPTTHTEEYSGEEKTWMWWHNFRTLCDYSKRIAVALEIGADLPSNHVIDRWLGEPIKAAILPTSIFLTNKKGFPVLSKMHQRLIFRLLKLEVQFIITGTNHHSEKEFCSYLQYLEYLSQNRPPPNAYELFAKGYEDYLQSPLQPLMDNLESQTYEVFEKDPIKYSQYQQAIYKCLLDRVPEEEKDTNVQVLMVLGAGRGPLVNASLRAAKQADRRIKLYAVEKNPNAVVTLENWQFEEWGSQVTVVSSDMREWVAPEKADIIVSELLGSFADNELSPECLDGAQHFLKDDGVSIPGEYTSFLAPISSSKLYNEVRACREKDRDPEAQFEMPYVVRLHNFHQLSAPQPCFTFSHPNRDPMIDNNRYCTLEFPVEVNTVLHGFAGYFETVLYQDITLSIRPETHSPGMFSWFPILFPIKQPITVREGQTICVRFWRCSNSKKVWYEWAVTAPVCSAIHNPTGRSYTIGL
Sequence of PRMT5/MEP50 complex (Q9BQA1 whole entry, further chain): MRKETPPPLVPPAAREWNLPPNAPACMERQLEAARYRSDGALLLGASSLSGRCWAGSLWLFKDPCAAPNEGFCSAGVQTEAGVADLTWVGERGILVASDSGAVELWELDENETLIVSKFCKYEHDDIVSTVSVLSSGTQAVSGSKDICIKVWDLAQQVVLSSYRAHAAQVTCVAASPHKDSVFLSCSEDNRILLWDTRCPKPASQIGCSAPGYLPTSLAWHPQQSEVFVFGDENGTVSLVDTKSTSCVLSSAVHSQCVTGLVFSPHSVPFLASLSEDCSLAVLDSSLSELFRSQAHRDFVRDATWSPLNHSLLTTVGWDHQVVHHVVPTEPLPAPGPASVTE

One assay concerns the target PRMT5/MEP50 complex (Homo sapiens, UniProt O14744). Put plainly: Inhibition of recombinant Avi-tagged PRMT5 (2 to 637)/ His-tagged MEP50 (2 to 342) (unknown origin) expressed in baculovirus infected Sf21 cells using biotinylated H4R3 (Me1) peptide as substrate in presence of SAM preincubated for 60 mins followed by substrate addition after 150 mins by biochemical methylation assay.
The term pEC50 denotes the EC50 on a negative log10 scale, so that one unit is a factor of ten. In the case of `COc1ccc([C@@]2(C34CC5CC(CC(O)(C5)C3)C4)N=C(N)N(C)C2=O)cc1`, the pEC50 was 6.66.
As to `COc1cccc([C@@]2(C34CC5CC(CC(C5)C3)C4)N=C(N)N(C)C2=O)c1`, the pEC50 was 7.25.
Consider `CN1C(=O)[C@](c2ccc3ccccc3c2)(C23CC4CC(CC(C4)C2)C3)N=C1N`, for which the pEC50 is 7.05.
In the case of `CCC1CCN2C(=O)[C@](c3ccccc3)(C34CC5CC(CC(C5)C3)C4)N=C2N1` (stereo partly drawn), the pEC50 was 7.17.
Regarding `COc1ccc([C@]2(C34CC5CC(CC(C5)C3)C4)N=C(N)N(C)C2=O)cc1`, the pEC50 was 5.51.
For the molecule `CN1C(=O)[C@@](CCC2CCCCC2)(c2ccccc2)N=C1N`, the pEC50 was 7.30.
The same measure, in the same setting: the figure for `CN1C(=O)[C@](c2ccccc2)(C23CC4CC(CC(C4)C2)C3)N=C1N` is 7.92.
On the same count and under the same terms, the figure for `COc1ccc(C2(C34CC5CC(O)(CC(F)(C5)C3)C4)N=C(N)N(C)C2=O)cc1` (stereo not drawn) is 6.21.
Same read-out and setting: the value for `COc1ccc([C@@]2(C34CCC(CC3)CC4)N=C(N)N(C)C2=O)cc1` was 6.62; that for `CC1CCN2C(=O)[C@](c3ccccc3)(C34CC5CC(CC(C5)C3)C4)N=C2N1` (stereo partly drawn) was 7.18.
As for `COc1ccc([C@@]2(C34CC5CC(CC(C5)C3)C4)N=C(N)N(C)C2=O)cc1`, the pEC50 is 7.80.

The next assay deals with Protein arginine N-methyltransferase 5 (Homo sapiens, UniProt O14744). Nature of the assay: Inhibition of PRMT5 in human MCF7 cells assessed as reduction in symmetrically dimethylated nuclear protein level incubated for 3 days by Alexafluor-488 conjugate anti-rabbit antibody/DAPI staining based IN cell analyzer method.
Sequence of Protein arginine N-methyltransferase 5 (O14744 whole entry): as the sequence (O14744 whole entry) above
Take `COc1ccc([C@@]2(C34CC5CC(CC(C5)C3)C4)N=C(N)N(C)C2=O)cc1`: the pEC50 is 5.34.

For the next assay, the target named is PRMT5/MEP50 complex (Homo sapiens) (UniProt O14744+Q9BQA1). Nature of the assay: Binding affinity to human biotinylated PRMT5/MEP50 assessed as association rate constant by SPR analysis. It counts as protein-complex assay.
In the case of `COc1ccc([C@@]2(C34CC5CC(CC(C5)C3)C4)N=C(N)N(C)C2=O)cc1`, the Ka came out at 1000 M⁻¹ s⁻¹.

These data come from ChEMBL document CHEMBL4619823, “Allosteric Modulation of Protein Arginine Methyltransferase 5 (PRMT5)” (ACS Med Chem Lett, 2020).
